# Measurements published in US20220249538A1, “TREATMENT AGENT FOR SEX HORMONE-INSENSITIVE GREB1-POSITIVE TUMORS” (OSAKA UNIVERSITY, priority 2019, published 2022).
# Legend:
# Format in all cases: cell-based, human
# HepG2 cells [1] = test: mRNA (real-time PCR) and protein (lysate probing) expression in HepG2 cells
# Procedure: Using RNAiMAX (Life Technologies/Thermo Fisher Scientific), HepG2 cells, Huh6 cells, Hep3B cells, JHH7 cells, and SKMEL28 cells were each transfected with each siRNA (10 nm). In experiments, the cells were used from 48 to 120 hours after transfection.
# HepG2 cells [2] = test: Three-dimensional Matrigel culture, area of spheres; conditions: 3D Matrigel for 5 days
# Procedure: Cells grown on a glass cover slip were fixed with PBS containing 4% (w/v) paraformaldehyde at room temperature for 10 minutes, and permeabilization treatment was performed in PBS containing 0.2% (w/v) Triton X-100 and 2 mg/ml BSA for 10 minutes. Further, cells grown by three-dimensional culture were fixed in PBS containing 4% (w/v) paraformaldehyde at room temperature for 30 minutes, and blocked in PBS containing 0.5% (w/v) Triton X-100 and 40 mg/ml BSA for 30 minutes. […]
# Further, HepG2 cells transfected with control siRNA or siRNA (GREB1 #2 siRNA) were cultured in 3D Matrigel for 5 days, and the cultured cells were stained with phalloidin to measure the areas of spheres (n=20). […] The ratio of spheres having polarized lumens was calculated as a ratio of spheres having F-actin-positive central microlumen to the total spheres.
# Further, HepG2 cells expressing GFP or GFP-GREB1 were transfected with control ASO or each of the above-described GREB1 ASOs, and cultured in three-dimensional Matrigel for 4 days. The cultured cells were stained with phalloidin and Hoechst33342, and the areas of spheres were calculated (n=50).
# HepG2 cells [3] = test: Cell viability by propidium iodide and Hoechst33342 staining; conditions: medium without Z-VAD, 0.1% FBS, 2 days; PI and Hoechst33342
# Procedure: Further, HepG2 cells were transfected with control siRNA or siRNAs (GREB1 #1 siRNA and GREB1 #2 siRNA), cultured in media (caspase inhibitor Z-VAD was contained in one condition, and not contained in the other condition) containing 0.1% FBS for 2 days, stained with propidium iodide (PI, […]) and Hoechst33342 (nucleus), and the cell viability was evaluated.
# Further, HepG2 cells transfected with control siRNA, GREB1 siRNA (GREB1 #2 siRNA), p15 siRNA, or siRNA of GREB1 (GREB1 #2 siRNA) and siRNA of p15 in combination were cultured in media (caspase inhibitor Z-VAD was contained in one condition, and not contained in the other condition) containing 0.1% FBS for 2 days, stained with propidium iodide (PI) and Hoechst33342, and the cell viability was calculated.
# Smad2/3 = Smad2/3 immunostaining and immunoprecipitation in HepG2 cells
# Procedure: HepG2 cells (100 mm diameter dish) were lysed with 400 μl of a cell lysis buffer (10 mM Tris-HCl [pH 7.4], 140 mM NaCl, 5 mM EDTA, 1% NP40, 25 mM NaF, […], and 10 mM PMSF). The resulting lysate was immunoprecipitated with anti-Smad2/3 antibody, and the immunoprecipitates were probed with predetermined antibodies.
# Further, HepG2 cells transfected with control siRNA or GREB1 #2 siRNA were cultured in the presence or absence of 10 ng/mL of TGFβ for 30 minutes. The cultured cells were fixed, and immunostained with anti-Smad2/3 antibody (see c of FIG. 8). Further, cell lysates of the cultured cells were immunoprecipitated with anti-Smad2/3 antibody. Next, the resulting cell lysates (Input) and immunoprecipitates (IP) were reacted with anti-Smad4 antibody or anti-Smad2/3 antibody (see d of FIG. 8). In addition, the cell lysates of the cultured cells were reacted with anti-GREB1 antibody, anti-phosphorylated Smad2/3 (pSmad2/3) antibody, or anti-Smad2/3 antibody (see e of FIG. 8).
# Lysates of HepG2 cells transfected with control siRNA or GREB1 #2 siRNA were immunoprecipitated with anti-Smad2/3 antibody. Next, the resulting cell lysates (input) and immunoprecipitates (IP) were reacted with anti-p300 antibody, anti-GREB1 antibody, or anti-Smad2/3 antibody (see e of FIG. 7). […]
substance,measurement,setting,value
"GREB1 #2 siRNA: siRNA against human GREB1; sense 5′-CCUCCUACAAAGCAAUAUUTT-3′ (SEQ ID NO: 6), antisense SEQ ID NO: 7 (antisense AAUAUUGCUUUGUAGGAGGTT; chemistry not given here)",expression levels of PAI-1 and SNAIL2,"HepG2 cells [1]; HepG2/GFP cells, real-time PCR, n=3",increased
same,PAI-1 and SNAIL2 phenotypes of GREB1 knockdown,HepG2 cells [1]; HepG2/GFP-GREB1 cells (expression of GFP-GREB1),restored
same,amounts of cleaved caspase 3 and PARP1,"HepG2 cells [1]; HepG2 cells, 0.1% FBS for 2 days, lysate probing",increased
same,expressions of β-catenin and Axin2,"HepG2 cells [1]; HepG2 cells, GREB1 knockdown, lysate probing",no effect
same,expressions of PRLR and XBP1 (ER signal target genes),"HepG2 cells [1]; HepG2 cells, GREB1 knockdown, real-time PCR",no effect
same,"expression of cell cycle regulators cyclinA, cyclinB, phosphorylated histone H3","HepG2 cells [1]; HepG2 cells, medium containing 1% FBS for 1 day, lysate probing",decreases
same,increases in mRNA levels of PAI-1 and SNAIL2 by knockdown of GREB1,"HepG2 cells [1]; HepG2 cells, presence or absence of TGFβ receptor inhibitor (ALK5 inhibitor)",TGFβ receptor signal dependent
same,"expressions of DLK1, AFP, and PEG3","HepG2 cells [1]; HepG2 cells, real-time PCR",significantly decreased
same,decrease in expression of AFP by knockdown of GREB1,"HepG2 cells [1]; Smad2/3 knockout HepG2 cells vs HepG2 cells, real-time PCR",restored
same,decrease in expression of DLK1 by knockdown of GREB1,HepG2 cells [1]; effect of Smad2/3 knockout in HepG2 cells,no effect
same,ratio of spheres having polarized lumens,HepG2 cells [2],increased
same,area of sphere,"HepG2 cells [2]; phalloidin, n=20",reduced the area of sphere to half
same,cell death of HepG2 cells,HepG2 cells [3],elevated cell death
same,"TGFβ-dependent nuclear transport of Smad2/3, complex formation of Smad2/3 and Smad4, phosphorylation of Smad2/3",Smad2/3; 10 ng/mL TGFβ for 30 minutes,no effect
same,binding of Smad2/3 to p300,Smad2/3; anti-Smad2/3 immunoprecipitation,increased
